For assay [1], the system named is Human whole blood stimulated with a TLR2 agonist (lipoteichoic acid), IL-6 levels. As to the kind of experiment: IRAK4 Whole Blood Assay. The class given is cell-based. The settings on record: lipoteichoic acid 10 μg/mL. In outline: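 IL-6 was quantified by cytometric bead assay in supernatants of human blood (ACD-A) stimulated for 5 h with lipoteichoic acid at 10 μg/mL final. Compound exposure preceded stimulation for 60 min at 37 °C, 5% CO2.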

For assay [2], the target named is IRAK4 (Homo sapiens (Human), UniProt Q9NWZ3). As to the kind of experiment: IRAK4 Inhibition Assay. The class given is biochemical. As to conditions: ATP 500 μM; IRAK4 0.6 nM. In outline:
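Mobility-shift kinase assay: 0.6 nM IRAK4, 500 μM ATP, 1.5 μM fluorescent peptide, 60 min, room temperature. Percent inhibition was normalised between enzyme-free and DMSO-only wells.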

Molecules are shown by their SMILES. pEC50, pIC50: −log10 of the molar value.

What is called pEC50 is the negative decadic logarithm of the EC50, by convention in mol/L. Read a high pEC50 as a small EC50. A word on the pIC50: it is −log10 of the IC50, conventionally taken in molar units.

IRAK4, sequence (Q9NWZ3 whole entry, species assumed): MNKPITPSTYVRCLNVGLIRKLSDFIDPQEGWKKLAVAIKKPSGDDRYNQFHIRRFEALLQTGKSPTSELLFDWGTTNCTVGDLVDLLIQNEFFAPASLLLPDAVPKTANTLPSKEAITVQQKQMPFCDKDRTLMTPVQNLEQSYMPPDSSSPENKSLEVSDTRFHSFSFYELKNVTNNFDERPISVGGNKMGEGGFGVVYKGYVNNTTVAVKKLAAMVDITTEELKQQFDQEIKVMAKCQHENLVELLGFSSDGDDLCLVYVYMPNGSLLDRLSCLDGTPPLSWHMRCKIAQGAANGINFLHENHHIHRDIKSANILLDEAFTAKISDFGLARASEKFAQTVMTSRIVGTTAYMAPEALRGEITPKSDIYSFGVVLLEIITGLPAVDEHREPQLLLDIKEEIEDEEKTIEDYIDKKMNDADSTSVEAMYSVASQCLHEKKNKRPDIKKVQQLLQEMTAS

The compound `CC(C)Nc1cc(-n2ncc3cc(C#N)cnc32)ncc1-n1cc(C2CCC(NC(=O)OC(C)(C)C)CC2)nn1` (centres unmarked) [Example 342, tert-butyl ((1s,4s)-4-(1-(6-(5-cyano-1H-pyrazolo [3,4-b]pyridin-1-yl)-4-(isopropylamino)pyridin-3-yl)-1H-1,2,3-triazol-4-yl)cyclohexyl) carbamate] gave a pEC50 in assay [1] (Homo sapiens) of 5.95. In assay [2], the pIC50 is 8.70.
In the case of `CC(C)Nc1cc(-n2ncc3cc(C#N)cnc32)ncc1-n1cc(C2CCC(NC(C)C)CC2)nn1` (centres unmarked) [Example 343, 1-(4-(isopropylamino)-5-(4-((1 s,4s)-4-(isopropylamino)cyclohexyl)-1H-1,2,3-triazol-1-yl)pyridin-2-yl)-1H-pyrazolo[3,4-b]pyridine-5-carbonitrile], in assay [1] (Homo sapiens), the pEC50 is 6.28. In addition, the pIC50 in assay [2] was 8.52.
For `COC(=O)NC1CCC(c2cn(-c3cnc(-n4ncc5cc(C#N)cnc54)cc3NC(C)C)nn2)CC1` (centres unmarked) [Example 344, methyl ((1s,4s)-4-(1-(6-(5-cyano-1H-pyrazolo[3,4-b]pyridin-1-yl)-4-(isopropylamino)pyridin-3-yl)-1H-1,2,3-triazol-4-yl)cyclohexyl)carbamate] the same measures were 6.19 and 8.52.
`CCS(=O)(=O)N1CCC(c2cn(-c3cnc(-n4ncc5cc(C#N)cnc54)cc3NC(C)C)nn2)CC1` [Example 346, 1-(5-(4-(1-(ethylsulfonyl)piperidin-4-yl)-1H-1,2,3-triazol-1-yl)-4-(isopropylamino)pyridin-2-yl)-1H-pyrazolo[3,4-b]pyridine-5-carbonitrile] gave a pEC50 in assay [1] (Homo sapiens) of 6.34. Moreover, the pIC50 in assay [2] was 8.22.
`COC(=O)NCCc1cn(-c2cnc(-n3ncc4cc(C#N)cnc43)cc2NC(C)C)nn1` [Example 352, methyl (2-(1-(6-(5-cyano-1H-pyrazolo[3,4-b]pyridin-1-yl)-4-(isopropylamino)pyridin-3-yl)-1H-1,2,3-triazol-4-yl)ethyl)carbamate] had a pEC50 in assay [1] (Homo sapiens) of 6.34. The pIC50 in assay [2] was 7.70.
As to `CC(F)Cc1cn(-c2cnc(-n3ncc4cc(C#N)cnc43)cc2NC2CC2)nn1` (centres unmarked) [Example 353, 1-(4-(cyclopropylamino)-5-(4-(2-fluoropropyl)-1H-1,2,3-triazol-1-yl)pyridin-2-yl)-1H-pyrazolo[3,4-b]pyridine-5-carbonitrile], the negative-log EC50 (pEC50) in assay [1] was 6.37. In assay [2], the pIC50 is 7.96.
Compound `CC(C)(O)CCc1cn(-c2cnc(-n3ncc4cc(C#N)cnc43)cc2NCCC(F)(F)F)nn1` [Example 362, 1-(5-(4-(3-hydroxy-3-methylbutyl)-1H-1,2,3-triazol-1-yl)-4-((3,3,3-trifluoropropyl)amino)pyridin-2-yl)-1H-pyrazolo[3,4-b]pyridine-5-carbonitrile] showed a pEC50 in assay [1] (Homo sapiens) of 6.36. Also, the pIC50 in assay [2] was 8.15.
In the case of `CC(C)(O)CCc1cn(-c2cnc(-n3ncc4cc(C#N)cnc43)cc2NC2CCOC2)nn1` [Example 366, (S)-1-(5-(4-(3-hydroxy-3-methylbutyl)-1H-1,2,3-triazol-1-yl)-4-((tetrahydrofuran-3-yl)amino)pyridin-2-yl)-1H-pyrazolo[3,4-b]pyridine-5-carbonitrile], the pEC50 in assay [1] was 6.39. For the same compound, the negative-log IC50 (pIC50) in assay [2] was 8.05.
For `CC(C)Nc1cc(-n2ncc3cnc(N)nc32)ncc1-n1cc(CCC(C)(C)O)nn1` [Example 380, 4-(1-(6-(6-amino-1H-pyrazolo[3,4-d]pyrimidin-1-yl)-4-(isopropylamino)pyridin-3-yl)-1H-1,2,3-triazol-4-yl)-2-methylbutan-2-ol] the same measures were 6.34 and 8.22.
For the compound `CC(C)(O)CCc1cn(-c2cnc(-n3ncc4cc(C#N)cnc43)cc2NC(C)(C)CO)nn1` [Example 381, 1-(4-((1-hydroxy-2-methylpropan-2-yl)amino)-5-(4-(3-hydroxy-3-methylbutyl)-1H-1,2,3-triazol-1-yl)pyridin-2-yl)-1H-pyrazolo[3,4-b]pyridine-5-carbonitrile], the pEC50 in assay [1] (Homo sapiens) is 6.60. The negative logarithm of the IC50 (pIC50) in assay [2] is 8.70.
In assay [1] (Homo sapiens), `CC(C)(O)CCc1cn(-c2cnc(-n3ncc4cc(C#N)cnc43)cc2NC2(C)CC2)nn1` [Example 383, 1-(5-(4-(3-hydroxy-3-methylbutyl)-1H-1,2,3-triazol-1-yl)-4-((1-methylcyclopropyl)amino)pyridin-2-yl)-1H-pyrazolo[3,4-b]pyridine-5-carbonitrile] gave a negative logarithm of the EC50 (pEC50) of 6.43. Besides, in assay [2], the pIC50 is 8.70.
Take `CC(C)Nc1cc(-n2ncc3cc(C#N)cnc32)ncc1-n1cc(CC[C@@](C)(O)CO)nn1` [Example 388, (R)-1-(5-(4-(3,4-dihydroxy-3-methylbutyl)-1H-1,2,3-triazol-1-yl)-4-(isopropylamino)pyridin-2-yl)-1H-pyrazolo[3,4-b]pyridine-5-carbonitrile]: in assay [1] (Homo sapiens), the pEC50 was 6.59. In addition, the negative-log IC50 (pIC50) in assay [2] is 8.22.
For `CC(C)Nc1cc(-n2ncc3cc(C#N)cnc32)ncc1-c1cc(C2CNC2)no1` [Example 397, 1-(5-(3-(azetidin-3-yl)isoxazol-5-yl)-4-(isopropylamino)pyridin-2-yl)-1H-pyrazolo[3,4-b]pyridine-5-carbonitrile] the same measures were 6.34 and 8.30.
In assay [1] (Homo sapiens), `COC(=O)N1CCC[C@@H](c2cc(-c3cnc(-n4ncc5cc(C#N)cnc54)cc3NC(C)C)on2)C1` [Example 408, methyl (R)-3-(5-(6-(5-cyano-1H-pyrazolo[3,4-b]pyridin-1-yl)-4-(isopropylamino)pyridin-3-yl)isoxazol-3-yl)piperidine-1-carboxylate] gave a negative-log EC50 (pEC50) of 6.31. The pIC50 in assay [2] is 8.70.
For `CC(C)Nc1cc(-n2ncc3cc(C#N)cnc32)ncc1-c1cc(C2CCCOC2)no1` (centres unmarked) [Example 416, 1-(4-(isopropylamino)-5-(3-(tetrahydro-2H-pyran-3-yl)isoxazol-5-yl)pyridin-2-yl)-1H-pyrazolo[3,4-b]pyridine-5-carbonitrile] the same measures were 6.32 and 8.70.
Regarding `CC(C)Nc1cc(-n2ncc3cc(C#N)cnc32)ncc1-c1cc(C2CCOCC2)no1` [Example 418, 1-(4-(isopropylamino)-5-(3-(tetrahydro-2H-pyran-4-yl)isoxazol-5-yl)pyridin-2-yl)-1H-pyrazolo[3,4-b]pyridine-5-carbonitrile], the pEC50 in assay [1] (Homo sapiens) was 6.31. Moreover, the negative logarithm of the IC50 (pIC50) in assay [2] is 8.52.
Compound `CC(C)Nc1cc(-n2ncc3cc(C#N)cnc32)ncc1-c1cc(CCC(C)(C)O)no1` [Example 426, 1-(5-(3-(3-hydroxy-3-methylbutyl)isoxazol-5-yl)-4-(isopropylamino)pyridin-2-yl)-1H-pyrazolo[3,4-b]pyridine-5-carbonitrile] showed a pEC50 in assay [1] (Homo sapiens) of 6.47. In addition, in assay [2], the pIC50 was 9.00.
In assay [1] (Homo sapiens), `CC(C)Nc1cc(-n2ncc3cc(C#N)cnc32)ncc1-c1cc(CCC(C)(C)O)on1` [Example 429, 1-(5-(5-(3-hydroxy-3-methylbutyl)isoxazol-3-yl)-4-(isopropylamino)pyridin-2-yl)-1H-pyrazolo[3,4-b]pyridine-5-carbonitrile] had a pEC50 of 6.35. For the same compound, the pIC50 in assay [2] is 8.70.
With `CC(C)Nc1cc(-n2ncc3cc(C#N)cnc32)ncc1-c1cc([C@@H]2CCCCN2S(C)(=O)=O)on1` [Example 432, (S)-1-(4-(isopropylamino)-5-(5-(1-(methylsulfonyl)piperidin-2-yl)isoxazol-3-yl)pyridin-2-yl)-1H-pyrazolo[3,4-b]pyridine-5-carbonitrile], the pEC50 in assay [1] (Homo sapiens) is 6.43. Further, the negative-log IC50 (pIC50) in assay [2] was 9.00.

Source of the values: patent publication US10294229B2, “Heteroaryl substituted aminopyridine compounds” (BRISTOL-MYERS SQUIBB COMPANY, priority 2015, dated 2019).
